Where two headings read alike, the source gives them in different places.
Columns and labels:
[1] = system: Aβ42 release in H4-15× cells; test: Inhibition of Aβ42 release in the supernatant of H4-15× cells; assay type: cell-based, human; conditions: for inhibition at 100 µM: Homo sapiens, H415, overnight (14-16 hours) incubation; for % inhibition of Aβ42 release: 100 μM, overnight (14-16 hours) incubation
Protocol: H4-15× cells (human neuroglioma cells transfected with the human gene encoding for the precursor of β-amyloid protein APP695) were cultured in flasks (in incubator at 37° C., under aqueous vapour saturated atmosphere with 5% carbon dioxide), in the presence of hygromycin and blasticidin, which maintain the selective pressure for the cells continuously expressing the gene of interest.
When the cells reached about 90% confluency, they were collected and re-seeded in 24 wells plates (2×10^5 cells each), in 0.5 ml of complete culture medium. After approx. 24 hours, when the cells had adhered to the well surface and reached confluency, the medium of each well was replaced with 0.5 ml of fresh culture medium, supplemented with a compound (I) to 100 micromolar final concentration. Each tested concentration was repeated in triplicate. The molecules used for the treatment were previously dissolved in dimethylsulfoxide (DMSO) or in a dimethylsulfoxide/water mixture, the final concentration of DMSO in the wells not exceeding 1%. Thus the prepared plates were incubated again overnight (14-16 hours); afterwards the cell supernatant was taken from each well and Aβ42 and Aβ40 proteins were quantitated. The assay was carried out with an instrumentation for microplates chemoluminescence analysis, which allows to separately quantify the two proteins and is based on the immobilization of an analyte-antibody complex on paramagnetic microbeads. One of the antibodies of this complex is marked with a ruthenium compound which, upon electrochemical excitement, gives a light signal, having intensity proportional to the amount of analyte present.

cyclooxygenase-1 (COX-1) = target: T1, cyclooxygenase-1 (COX-1) (Rattus norvegicus, UniProt Q63921); test: Inhibition of cyclooxygenase-1 (COX-1) in rat whole blood (TxB2 production); assay type: cell-based; conditions: for inhibition at 100 µM: read-out: % COX-1 inhibitory activity
T1 construct: Aliquots of heparinized blood (500 μl) were preincubated with 100 μM concentration of the tested compounds; from tissue; host or cells: rat whole blood (heparinized, from the abdominal aorta)
T1 sequence (Q63921 27-602): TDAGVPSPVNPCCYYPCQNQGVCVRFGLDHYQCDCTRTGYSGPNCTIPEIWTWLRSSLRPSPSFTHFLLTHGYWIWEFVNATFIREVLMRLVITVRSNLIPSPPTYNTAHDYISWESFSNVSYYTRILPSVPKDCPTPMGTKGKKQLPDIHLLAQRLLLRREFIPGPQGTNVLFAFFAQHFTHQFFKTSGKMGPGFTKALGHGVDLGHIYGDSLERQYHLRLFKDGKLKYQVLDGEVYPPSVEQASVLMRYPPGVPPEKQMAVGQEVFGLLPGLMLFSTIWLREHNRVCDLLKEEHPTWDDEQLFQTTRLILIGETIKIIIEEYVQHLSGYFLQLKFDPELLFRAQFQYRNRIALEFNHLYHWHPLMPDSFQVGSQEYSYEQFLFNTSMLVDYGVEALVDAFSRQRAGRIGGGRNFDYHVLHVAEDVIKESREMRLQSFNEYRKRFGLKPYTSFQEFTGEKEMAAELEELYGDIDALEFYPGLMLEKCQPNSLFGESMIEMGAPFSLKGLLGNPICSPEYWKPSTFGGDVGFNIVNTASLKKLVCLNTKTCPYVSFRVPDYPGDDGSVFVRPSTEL
Protocol: Whole blood was taken from the rat abdominal aorta and immediately placed in heparinized tubes. Aliquots of heparinized blood (500 μl) were preincubated with 100 μM concentration of the tested compounds or with the only carrier (DMSO) for 1 h at 37° C. Eicosanoid production was induced by addition of calcium ionophore A23187 (final concentration 5×10^−5 M) and was interrupted after 30 minute incubation by quickly placing the samples in dry ice. Thereafter, samples were centrifuged (12000 g×3 minutes a 4° C.) and the production of TxB2 thromboxane B2 was calculated by radioimmunoassay.

[2] = 100 μM, rat whole blood, calcium ionophore A23187-induced TxB2 production

Compound | inhibition at 100 µM [1] | inhibition at 100 µM (cyclooxygenase-1 (COX-1); [2]) | % inhibition of Aβ42 release [1] | % COX-1 inhibitory activity (cyclooxygenase-1 (COX-1); [2]) | inhibition at 100 µM (cyclooxygenase-1 (COX-1))
CC(C)(C(=O)O)c1ccc(-c2ccc(C(F)(F)F)cc2)c(F)c1 [CHF 4810, 2-methyl-2(2-fluoro-4′-trifluoromethylbiphen-4-yl)propionic acid] | 58% | – | – | – | –
CC(C)(C(=O)O)c1ccc(-c2ccc(C3CCCCC3)cc2)c(F)c1 [CHF 4961, 2-methyl-2(2-fluoro-4′cyclohexylbiphen-4-yl)propionic acid] | 76.6% | 5.2% | – | – | –
O=C(O)C1(c2ccc(-c3ccc(C(F)(F)F)cc3)c(F)c2)CC1 [CHF 5022, 1-(2-fluoro-4′-trifluoromethylbiphenyl-4-yl)cyclopropanecarboxylic acid] | 55.4% | 0% | – | – | –
O=C(O)C1(c2ccc(-c3cccc(OC(F)(F)F)c3)c(F)c2)CC1 [CHF 5045, 1-(2-fluoro-3′-trifluoromethoxybiphenyl-4-yl)cyclopropanecarboxylic acid] | 56.4% | 8.3% | – | – | –
O=C(O)C1(c2ccc(-c3ccc(OC(F)(F)F)cc3)c(F)c2)CC1 [CHF 5046, 1-(2-fluoro-4′-trifluoromethoxybiphenyl-4-yl)cyclopropanecarboxylic acid] | 70.4% | 2.6% | – | – | –
O=C(O)C1(c2ccc(-c3cccc(C(F)(F)F)c3)c(F)c2)CC1 [CHF 5058, 1-(2-fluoro-3′-trifluoromethylbiphenyl-4-yl)cyclopropanecarboxylic acid] | 54.8% | 0% | – | – | –
O=C(O)C1(c2ccc(-c3ccc(O)cc3)c(F)c2)CC1 [CHF 5070, 1-(2-fluoro-4′-hydroxybiphenyl-4-yl)cyclopropanecarboxylic acid] | 22.4% | 0% | – | – | –
O=C(O)C1(c2ccc(-c3ccc(OC4CCOCC4)cc3)c(F)c2)CC1 [CHF 5071, 1-[2-fluoro-4′-(tetrahydropyran-4-yloxy)biphenyl-4-yl]-cyclopropane-carboxylic acid] | 28.1% | 0.4% | – | – | –
O=C(O)C1(c2ccc(-c3ccc(F)c(F)c3)c(F)c2)CC1 [CHF 5073, 1-(2,3′,4′-trifluorobiphenyl-4-yl)cyclopropanecarboxylic acid] | 67.4% | 4.8% | – | – | –
O=C(O)C1(c2ccc(-c3ccc(Cl)c(Cl)c3)c(F)c2)CC1 [CHF 5074, 1-(3′,4′-dichloro-2-fluorobiphenyl-4-yl)cyclopropanecarboxylic acid] | 79.2% | 0.5% | – | – | –
O=C(O)C1(c2ccc(-c3ccc(F)c(Cl)c3)c(F)c2)CC1 [CHF 5076, 1-(3′-chloro-2,4′-difluorobiphenyl-4-yl)cyclopropanecarboxylic acid] | 71.4% | 5.5% | – | – | –
C#CCOc1ccc(-c2ccc(C3(C(=O)O)CC3)cc2F)cc1 [CHF 5078, 1-(2-fluoro-4′-prop-2-inyloxy-biphenyl-4-yl)-cyclopropanecarboxylic acid] | – | – | 57.5% | 3.6% | –
O=C(O)C1(c2ccc(-c3ccc(C4CCOCC4)cc3)c(F)c2)CC1 [CHF 5080, 1-[2-fluoro-4′-(tetrahydropyran-4-yl)-biphenyl-4-yl]-cyclopropanecarboxylic acid] | 51.8% | 0.3% | – | – | –
O=C1CCC(c2ccc(-c3ccc(C4(C(=O)O)CC4)cc3F)cc2)CC1 [CHF 5081, 1-[2-fluoro-4′-(4-oxo-cyclohexyl)-biphenyl-4-yl]-cyclopropanecarboxylic acid] | 52.3% | 6.1% | – | – | –
O=C(O)C1CC1c1ccc(-c2ccc(-c3ccc(O)cc3)cc2)c(F)c1 (centres unmarked) [CHF 5083, 2-(2″-fluoro-4-hydroxy-[1,1′:4′,1″]tert-phenyl-4″-yl)-cyclopropanecarboxylic acid] | – | – | 81.1% | – | –
O=C(O)C1(c2ccc(-c3ccc(OC4CCC(C(F)(F)F)CC4)cc3)c(F)c2)CC1 (centres unmarked) [CHF 5096, 1-[2-fluoro-4′-[[4-(trifluoromethyl)cyclohexyl]oxy][1,1′-biphenyl]-4-yl]-cyclopropanecarboxylic acid] | 70% | 0.8% | – | – | –
O=C(O)C1(c2ccc(-c3ccc(-c4ccc(F)cc4)cc3F)c(F)c2)CC1 [CHF 5105, 1-(2,2′,4″-trifluoro[1,1′:4′,1″-tert-phenyl]-4-yl)-cyclopropanecarboxylic acid] | – | – | 90.7% | 1.9% | –
O=C(O)C1(c2ccc(-c3ccc(-c4ccc(O)cc4)c(F)c3)c(F)c2)CC1 [CHF 5106, 1-(2,3′-difluoro-4″-hydroxy[1,1′:4′,1″-tert-phenyl]-4-yl)-cyclopropane-carboxylic acid] | – | – | 79.9% | 0.0% | –
O=C(O)C1(c2ccc(-c3ccc(-c4ccc(O)cc4)cc3F)c(F)c2)CC1 [CHF 5107, 1-(2,2′-difluoro-4″-hydroxy[1,1′:4′,1″-tert-phenyl]-4-yl)-cyclopropane-carboxylic acid] | – | – | 83.3% | 1.1% | –
CC(C(=O)O)c1ccc(-c2ccccc2)c(F)c1 (centres unmarked) [Flurbiprofen, reference compound] | ~25% | – | – | – | 100%

Source: patent publication US8314268B2, “1-phenylalkanecarboxylic acid derivatives for the treatment of neurodegenerative diseases” (Chiesi Farmaceutici S.p.A., priority 2003, dated 2012)
